Assay results: patent US20250179073A1, “TRICYCLIC HETEROCYCLE COMPOUNDS AS IAP ANTAGONISTS” (Ascentage Pharma (Suzhou) Co., Ltd., priority 2022, published 2025)

Key:
MDA-MB-231 cells = assay: Cell proliferation assay (CellTiter-Glo), MDA-MB-231; format: cell-based; settings: Homo sapiens, MDA-MB-231, 72 h, 72 h treatment, Celltiter-Glo luminescence
In short: (§1)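 Compounds tested over ten concentrations ([…]) for 72 h on EVSA-T cells in MEM/10% FBS and MDA-MB-231 cells in RPMI-1640/10% FBS, seeded at 10000/well. Luminescent CellTiter-Glo readout; IC50 fitted after normalisation to controls.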

EVSA-T cells = assay: Cell proliferation assay (CellTiter-Glo), EVSA-T; format: cell-based; settings: Homo sapiens, EVSA-T, 72 h, 72 h treatment, Celltiter-Glo luminescence
In short: as §1

| IC50 (MDA-MB-231 cells) [nM] | SMILES | IC50 (EVSA-T cells) [nM] |
| --- | --- | --- |
| 180 | C[C@@H]1CN(CC(=O)N2CC(C)(C)c3c2cc(Cc2ccc(F)cc2)c2nc(C(F)(F)F)cn32)[C@@H](CN2CCN(CC(F)(F)F)C[C@H]2C)CN1 [Compound 179, 1-(4-(4-fluorobenzyl)-8,8-dimethyl-2-(trifluoromethyl)-7,8-dihydro-6H-imidazo[1,2-a]pyrrolo[2,3-e]pyridin-6-yl)-2-((2R,5R)-5-methyl-2-(((R)-2-methyl-4-(2,2,2-trifluoroethyl)piperazin-1-yl)methyl)piperazin-1-yl)ethan-1-one] | 15 |
| 33 | C[C@@H]1CN(CC(=O)N2CC(C)(C)c3c2cc(Cc2ccc(F)cc2)c2nn(C4COC4)c(=O)n32)[C@@H](CN2CCOC[C@H]2C)CN1 [Compound 210, 4-(4-fluorobenzyl)-8,8-dimethyl-6-(2-((2R,5R)-5-methyl-2-(((R)-3-methylmorpholino)methyl)piperazin-1-yl)acetyl)-2-(oxetan-3-yl)-2,6,7,8-tetrahydro-1H-pyrrolo[2,3-e][1,2,4]triazolo[4,3-a]pyridin-1-one] | 3 |
| 74 | C[C@@H]1CN(CC(=O)N2CC(C)(C)c3c2cc(Cc2ccc(F)cc2)c2nc(Cl)cn32)[C@@H](CN2CCOC[C@H]2C)CN1 [Compound 113, 1-(2-chloro-4-(4-fluorobenzyl)-8,8-dimethyl-7,8-dihydro-6H-imidazo[1,2-a]pyrrolo[2,3-e]pyridin-6-yl)-2-((2R,5R)-5-methyl-2-(((R)-3-methylmorpholino)methyl)piperazin-1-yl)ethan-1-one] | 6 |
| 38 | C[C@@H]1CN(CC(=O)N2CC(C)(C)c3c2cc(Cc2ccc(F)cc2)c2nnc(C#N)n32)[C@@H](CN2CCOC[C@H]2C)CN1 [Compound 153, 4-(4-fluorobenzyl)-8,8-dimethyl-6-(2-((2R,5R)-5-methyl-2-(((R)-3-methylmorpholino)methyl)piperazin-1-yl)acetyl)-7,8-dihydro-6H-pyrrolo[2,3-e][1,2,4]triazolo[4,3-a]pyridine-1-carbonitrile] | 5 |
| 20 | COc1nc2c(Cc3ccc(F)cc3)cc3c(n2n1)C(C)(C)CN3C(=O)CN1C[C@@H](C)NC[C@@H]1CN1CCOC[C@H]1C [Compound 126, 1-(4-(4-fluorobenzyl)-2-methoxy-8,8-dimethyl-7,8-dihydro-6H-pyrrolo[2,3-e][1,2,4]triazolo[1,5-a]pyridin-6-yl)-2-((2R,5R)-5-methyl-2-(((R)-3-methylmorpholino)methyl)piperazin-1-yl)ethan-1-one] | 3 |
| 59 | C[C@@H]1CN(CC(=O)N2CC(C)(C)c3c2cc(Cc2ccc(F)cc2F)c2ncnn32)[C@@H](CN2CCOC[C@H]2C)CN1 [Compound 40, 1-(4-(2,4-difluorobenzyl)-8,8-dimethyl-7,8-dihydro-6H-pyrrolo[2,3-e][1,2,4]triazolo[1,5-a]pyridin-6-yl)-2-((2R,5R)-5-methyl-2-(((R)-3-methylmorpholino)methyl)piperazin-1-yl)ethan-1-one] | 3 |
| 28 | C[C@@H]1CN(CC(=O)N2CC(C)(C)c3c2cc(Cc2ccc(F)cc2)c2nn(CC(C)(C)O)c(=O)n32)[C@@H](CN2CCOC[C@H]2C)CN1 [Compound 231, 4-(4-fluorobenzyl)-2-(2-hydroxy-2-methylpropyl)-8,8-dim ethyl-6-(2-((2R,5R)-5-methyl-2-(((R)-3-methylmorpholino)methyl)piperazin-1-yl)acetyl)-2,6,7,8-tetrahydro-1H-pyrrolo[2,3-e][1,2,4]triazolo[4,3-a]pyridin-1-one] | 4 |
| 120 | C[C@@H]1CN(CC(=O)N2CC(C)(C)c3c2cc(Cc2ccc(F)cc2Cl)c2ncnn32)[C@@H](CN2CCOC[C@H]2C)CN1 [Compound 123, 1-(4-(2-chloro-4-fluorobenzyl)-8,8-dimethyl-7,8-dihydro-6H-pyrrolo[2,3-e][1,2,4]triazolo[1,5-a]pyridin-6-yl)-2-((2R,5R)-5-methyl-2-(((R)-3-methylmorpholino)methyl)piperazin-1-yl)ethan-1-one] | 43 |
| 34 | C[C@@H]1CN(CC(=O)N2CC(C)(C)c3c2cc(Cc2ccc(F)cc2)c2ncnn32)[C@@H](CN2CCOC3CC32)CN1 (stereo partly drawn) [Compound 202, 2-((2S,5R)-2-((2-oxa-5-azabicyclo[4.1.0]heptan-5-yl)methy 1)-5-methylpiperazin-1-yl)-1-(4-(4-fluorobenzyl)-8,8-dimethyl-7,8-dihydro-6H-pyrrolo[2,3-e][1,2,4]triazolo[1,5-a]pyridin-6-yl)ethan-1-one] | 17 |
| 23 | C[C@@H]1CN(CC(=O)N2CC(C)(C)c3c2cc(Cc2ccc(F)cc2)c2nc(C#N)cn32)[C@@H](CN2CCOC[C@H]2C)CN1 [Example 21, 4-(4-fluorobenzyl)-8,8-dimethyl-6-(2-((2R,5R)-5-methyl-2-(((R)-3-methylmorpholino)methyl)piperazin-1-yl)acetyl)-7,8-dihydro-6H-imidazo[1,2-a]pyrrolo[2,3-e]pyridine-2-carbonitrile] | 5 |
| 23 | C[C@@H]1CN(CC(=O)N2CC(C)(C)c3c2cc(Cc2ccc(F)cc2)c2nn(C4CCC4O)c(=O)n32)[C@@H](CN2CCOC[C@H]2C)CN1 (stereo partly drawn) [Compound 273A, 4-(4-fluorobenzyl)-2-(2-hydroxycyclobutyl)-8,8-dimethyl-6-(2-((2R,5R)-5-methyl-2-(((R)-3-methylmorpholino)methyl)piperazin-1-yl)acetyl)-2,6,7,8-tetrahydro-1H-pyrrolo[2,3-e][1,2,4]triazolo[4,3-a]pyridin-1-one] | 1.24 |
| 50 | C[C@@H]1CN(CC(=O)N2CC(C)(C)c3c2cc(Cc2ccc(F)cc2)c2nn(Cc4cnccn4)c(=O)n32)[C@@H](CN2CCOC[C@H]2C)CN1 [Compound 193, 4-(4-fluorobenzyl)-8,8-dimethyl-6-(2-((2R,5R)-5-methyl-2-(((R)-3-methylmorpholino)methyl)piperazin-1-yl)acetyl)-2-(pyrazin-2-ylmethyl)-2,6,7,8-tetrahydro-1H-pyrrolo[2,3-e][1,2,4]triazolo[4,3-a]pyridin-1-one] | 6 |
| 16 | C[C@@H]1CN(CC(=O)N2CC(C)(C)c3c2cc(Cc2ccc(F)cc2)c2nc(N)nn32)[C@@H](CN2CCOC[C@H]2C)CN1 [Example 30, 1-(2-amino-4-(4-fluorobenzyl)-8,8-dimethyl-7,8-dihydro-6H-pyrrolo[2,3-e][1,2,4]triazolo[1,5-a]pyridin-6-yl)-2-((2R,5R)-5-methyl-2-(((R)-3-methylmorpholino)methyl)piperazin-1-yl)ethan-1-one] | 3 |
| 34 | C[C@@H]1CN(CC(=O)N2CC(C)(C)c3c2cc(Cc2ccc(F)cc2)c2nn(CC(C)(C)O)c(=O)n32)[C@@H](CN2CCN(C3COC3)C[C@H]2C)CN1 [Compound 267, 4-(4-fluorobenzyl)-2-(2-hydroxy-2-methylpropyl)-8,8-dimethyl-6-(2-((2R,5R)-5-methyl-2-(((R)-2-methyl-4-(oxetan-3-yl)piperazin-1-yl)methyl)piperazin-1-yl)acetyl)-2,6,7,8-tetrahydro-1H-pyrrolo[2,3-e][1,2,4]triazolo[4,3-a]pyridin-1-one] | 19.6 |
| 100 | C[C@@H]1CN(CC(=O)N2CC(C)(C)c3c2cc(Cc2ccc(F)cc2)c2c(C#N)cnn32)[C@@H](CN2CCOC[C@H]2C)CN1 [Compound 105, 4-(4-fluorobenzyl)-8,8-dimethyl-6-(2-((2R,5R)-5-methyl-2-(((R)-3-methylmorpholino)methyl)piperazin-1-yl)acetyl)-7,8-dihydro-6H-pyrazolo[1,5-a]pyrrolo[2,3-e]pyridine-3-carbonitrile] | 9 |
| 22 | C[C@@H]1CN(CC(=O)N2CC(C)(C)c3c2cc(Cc2ccc(F)cc2)c2nn(C4CC(O)C4)c(=O)n32)[C@@H](CN2CCOC[C@H]2C)CN1 (stereo partly drawn) [Compound 271, 4-(4-fluorobenzyl)-2-(3-hydroxycyclobutyl)-8,8-dimethyl-6-(2-((2R,5R)-5-methyl-2-(((R)-3-methylmorpholino)methyl)piperazin-1-yl)acetyl)-2,6,7,8-tetrahydro-1H-pyrrolo[2,3-e][1,2,4]triazolo[4,3-a]pyridin-1-one] | 2.2 |
| 32 | [2H]C([2H])([2H])n1nc2c(Cc3ccc(F)cc3)cc3c(n2c1=O)C(C)(C)CN3C(=O)CN1C[C@@H](C)NC[C@@H]1CN1CCOC[C@H]1C [Compound 252] | 5.3 |
| 20 | C[C@@H]1CN(CC(=O)N2CC(C)(C)c3c2cc(Cc2ccc(F)cc2)c2nc(N4CC(O)C4)nn32)[C@@H](CN2CCOC[C@H]2C)CN1 [Compound 159, 1-(4-(4-fluorobenzyl)-2-(3-hydroxyazetidin-1-yl)-8,8-dimethyl-7,8-dihydro-6H-pyrrolo[2,3-e][1,2,4]triazolo[1,5-a]pyridin-6-yl)-2-((2R,5R)-5-methyl-2-(((R)-3-methylmorpholino)methyl)piperazin-1-yl)ethan-1-one] | 4 |
| 100 | CC(O)c1nc2c(Cc3ccc(F)cc3)cc3c(n2n1)C(C)(C)CN3C(=O)CN1C[C@@H](C)NC[C@@H]1CN1CCOC[C@H]1C (stereo partly drawn) [Compound 154, 1-(4-(4-fluorobenzyl)-2-(1-hydroxyethyl)-8,8-dimethyl-7,8-dihydro-6H-pyrrolo[2,3-e][1,2,4]triazolo[1,5-a]pyridin-6-yl)-2-((2R,5R)-5-methy 1-2-(((R)-3-methylmorpholino)methyl)piperazin-1-yl)ethan-1-one] | 5 |
| 18 | C[C@@H]1CN(CC(=O)N2CC(C)(C)c3c2cc(Cc2ccc(F)cc2)c2nc(C4COCCO4)nn32)[C@@H](CN2CCOC[C@H]2C)CN1 (stereo partly drawn) [Compound 206, 1-(2-(1,4-dioxan-2-yl)-4-(4-fluorobenzyl)-8,8-dimethyl-7,8-dihydro-6H-pyrrolo[2,3-e][1,2,4]triazolo[1,5-a]pyridin-6-yl)-2-((2R,5R)-5-methyl-2-(((R)-3-methylmorpholino)methyl)piperazin-1-yl)ethan-1-one] | 2 |
